Test results as given in US8299074B2, “P38 MAP kinase inhibitors” (RespiVert Ltd., priority 2008, dated 2012).
Read-outs that look alike come from different tables or passages of the source.

Assays:
U937 cells [1] = assay: LPS-induced TNF alpha release in U937 cells; assay type: cell-based
Method: (§1) LPS-Induced TNF Alpha/IL-8 Release in U937 Cells: Potency U937 cells, human monocytic cell line, were differentiated to macrophage-type cells by incubation with phorbol myristate acetate (PMA; 100 ng/ml) for 48 to 72 hours. Cells were pre-incubated with final concentrations of compound for 2 hrs. […] Coli: O111:B4, Sigma) for 4 hrs, and the supernatant collected for determination of TNFα and IL-8 concentration by sandwich ELISA (Duo-set, R&D systems). […] The inhibition of IL-8 production was calculated at each concentration of test compound by comparison with vehicle control.

THP-1 cells = assay: LPS-induced TNF alpha release in THP-1 cells; assay type: cell-based; details: Homo sapiens
Method: LPS-Induced TNF Alpha Release in THP-1 Cells: Potency […] Coli; O111:B4, Sigma) for 4 hr and the supernatant collected for determination of TNFα concentration by sandwich ELISA (Duo-set, R&D systems). The inhibition of TNFα production was calculated at each concentration by comparison with vehicle control.

[2] = system: Differentiated U937 cells; assay: MTT assay (cell viability); assay type: cell-based, human
Method: MTT Assay Differentiated U937 cells were pre-incubated with compound for 4 hrs in 5% FCS or 10% FCS for 24 hrs. […] After 1 hr incubation, the media were removed, 200 ul of DMSO added to each well and the plates were shaken lightly for 1 h prior to reading the absorbance at 550 nm. The percentage loss of cell viability was calculated for each well relative to vehicle (0.5% DMSO)-treatment. Consequently an apparent increase in cell viability for drug treatment relative to vehicle is tabulated as a negative percentage.

BEAS2B cells = assay: Poly I:C-induced ICAM-1 induction in BEAS2B cells; assay type: cell-based; details: Homo sapiens, BEAS-2B, read-out: BEAS2B (polyIC) ICAM1 IC50
Method: Poly I:C-Induced ICAM-1 Induction in BEAS2B Cells: Potency Poly I:C (1 ug/ml) (Invivogen Ltd., San Diego, Calif.) was transfected into BEAS2B cells (human bronchial epithelial cells, ATCC) with Oligofectamine (Invitrogen, Carlsbad, Calif.). Cells were pre-incubated with final concentrations of compound for 2 hrs. The level of ICAM1 expression on the cell surface was determined by cell-based ELISA. Briefly, at 18 hrs after poly I:C transfection, cells were fixed with 4% formaldehyde in PBS. After quenching endogenous peroxidase by adding 0.1% sodium azide and 1% hydrogen peroxide, cells were washed with wash-buffer (0.1% Tween in PBS: PBS-Tween). After blocking the wells with 5% milk in PBS-Tween for 1 hr, the cells were incubated with anti-human ICAM-1 antibody (Cell Signaling Technology, Danvers, Mass.) in 1% BSA PBS overnight at 4° C. Cells were washed with PBS-Tween and incubated with the secondary antibody (HRP-conjugated anti-rabbit IgG, Dako Ltd., Glostrup, Denmark). The ICAM-1 signal was detected by adding substrate and reading at 450 nm with a reference wavelength of 655 nm using a spectrophotometer. […] The measured OD 450-655 readings were corrected for cell number by dividing with the OD595 reading in each well.

U937 cells [3] = assay: LPS-induced IL-8 release in U937 cells; assay type: cell-based; details: Homo sapiens, read-out: DU937 (LPS) IL-8 IC50
Method: as §1

p38 MAPK alpha (MAPK14) = target: T1, p38 MAPK alpha (MAPK14) (Homo sapiens, UniProt Q16539); assay: Enzyme inhibition assay, p38 MAPK alpha (FRET, Z-LYTE, via MAPKAP-K2); assay type: biochemical; details: read-out: Enzyme p38α IC50
T1 construct: purchased Invitrogen
T1 sequence (Q16539 whole entry): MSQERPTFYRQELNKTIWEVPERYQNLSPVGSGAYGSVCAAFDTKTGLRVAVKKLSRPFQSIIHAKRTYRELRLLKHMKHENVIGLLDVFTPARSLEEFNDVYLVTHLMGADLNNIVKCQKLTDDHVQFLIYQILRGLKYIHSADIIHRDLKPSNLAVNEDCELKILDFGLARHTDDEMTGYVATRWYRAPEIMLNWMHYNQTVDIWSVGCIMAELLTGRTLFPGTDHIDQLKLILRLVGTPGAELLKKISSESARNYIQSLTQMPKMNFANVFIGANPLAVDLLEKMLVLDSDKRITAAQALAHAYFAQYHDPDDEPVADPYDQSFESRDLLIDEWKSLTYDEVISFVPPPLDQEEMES

[4] = Homo sapiens; read-out: DU937 (LPS) TNFα REC50
[5] = THP-1, Table 2, read-out: THP-1 (LPS) TNFα IC50
[6] = Table 2, loss of cell viability, test conducted at 10 μg/ml
[7] = THP-1, Table 3, read-out: THP-1 (LPS) TNFα IC50
[8] = Table 3, first MTT column, loss of cell viability at 1 μg/ml
[9] = Table 3, second MTT column, loss of cell viability at 1 μg/ml
[10] = Table 2, loss of cell viability at 1 μg/ml
[11] = Homo sapiens, read-out: DU937 (LPS) TNFα REC50
[12] = THP-1, read-out: THP-1 (LPS) TNFα IC50

SMILES	EC50 (U937 cells [1]; [4]) [nM]	IC50 (THP-1 cells; [5]) [nM]	DU937 (cell viability) MTT assay 4 h [2, 6]	DU937 (cell viability) MTT assay 24 h [2, 6]	IC50 (BEAS2B cells; Table 2) [nM]	IC50 (U937 cells [3]; Table 2) [nM]	IC50 (p38 MAPK alpha (MAPK14); Table 3) [nM]	IC50 (THP-1 cells; [7]) [nM]	DU937 (cell viability) MTT assay 4 h [2, 8]	DU937 (cell viability) MTT assay 4 h [2, 9]	other results
COCCC(=O)Nc1cc(Oc2ccc(NC(=O)Nc3cc(C(C)(C)C)nn3-c3ccc(C)cc3)c3ccccc23)ccn1 [Example 4, N-(4-(4-(3-(3-tert-Butyl-1-p-tolyl-1H-pyrazol-5-yl)ureido)naphthalen-1-yloxy)pyridin-2-yl)-3-methoxypropanamide]	< 10	< 10	−^$ (<=30%)	+^$ (>30%)	< 10	< 10	–	–	–	–	–
Cc1ccc(-n2nc(C(C)(C)C)cc2NC(=O)Nc2ccc(Oc3ccnc(NC(=O)NCc4cc(C)no4)c3)c3ccccc23)cc1 [Example 49, N-(3-Methylisoxazol-5-yl)methyl-N′-4-(4-(3-(3-tert-butyl-1-p-tolyl-1H-pyrazol-5-yl)ureido)naphthalen-1-yloxy)pyridin-2-ylurea]	< 10	–	–	–	–	–	< 10	< 10	− (<=30%)	− (<=30%)	IC50 (BEAS2B cells; Table 3): < 5000 nM; IC50 (U937 cells [3]; Table 3): < 5000 nM
Cc1ccc(-n2nc(C(C)(C)C)cc2NC(=O)Nc2ccc(Oc3ccnc(NC(=O)NC4CC4)c3)c3ccccc23)cc1 [Example 33, 1-(4-((2-(3-Cyclopropylureido)pyridin-4-yl)oxy)naphthalen-1-yl)-3-(3-(tert-butyl)-1-(p-tolyl)-1H-pyrazol-5-yl)urea]	< 10	–	–	–	–	–	< 5000	< 10	− (<=30%)	− (<=30%)	IC50 (BEAS2B cells; Table 3): < 5000 nM
COCC(=O)Nc1cc(Oc2ccc(NC(=O)Nc3cc(C(C)(C)C)nn3-c3ccc(C)cc3)c3ccccc23)ccn1 [Example 8, N-(4-(4-(3-(3-tert-Butyl-1-p-tolyl-1H-pyrazol-5-yl)ureido)naphthalen-1-yloxy)pyridin-2-yl)-2-methoxyacetamide]	< 10	< 5000	–	–	< 10	< 10	–	–	–	–	DU937 (cell viability) MTT assay 4 h [2, 10]: − (<=30%); DU937 (cell viability) MTT assay 24 h [2, 10]: + (>30%)
COCCOCC(=O)N1CCC(NC(=O)Nc2cc(Oc3ccc(NC(=O)Nc4cc(C(C)(C)C)nn4-c4ccc(C)cc4)c4ccccc34)ccn2)CC1 [Example 40, 2-(2-Methoxyethoxy)-1-(4-(3-(4-(4-(3-(3-tert-butyl-1-p-tolyl-1H-pyrazol-5-yl)ureido)naphthalen-1-yloxy)pyridin-2-yl)ureido)piperidin-1-yl)ethanone]	–	–	–	–	–	–	–	–	− (<=30%)	+ (>30%)	EC50 (U937 cells [1]; [11]): < 10 nM; IC50 (THP-1 cells; [12]): < 10 nM; IC50 (BEAS2B cells): < 10 nM; IC50 (U937 cells [3]): < 10 nM
Cc1ccc(-n2nc(C(C)(C)C)cc2NC(=O)Nc2ccc(Oc3ccnc(NC(=O)NC4CCN(S(C)(=O)=O)CC4)c3)c3ccccc23)cc1 [Example 41, N-Methylsulfonyl-4-(3-(4-(4-(3-(3-tert-butyl-1-p-tolyl-1H-pyrazol-5-yl)ureido)naphthalen-1-yloxy)pyridin-2-yl)ureido)piperidine]	< 5000	–	–	–	–	–	< 10	< 10	− (<=30%)	+ (>30%)	IC50 (U937 cells [3]; Table 3): < 5000 nM
COCCOCC(=O)Nc1cc(Oc2ccc(NC(=O)Nc3cc(C(C)(C)C)nn3-c3ccc(C)cc3)c3ccccc23)ccn1 [Example 1, N-(4-(4-(3-(3-tert-Butyl-1-p-tolyl-1H-pyrazol-5-yl)ureido)naphthalen-1-yloxy)pyridin-2-yl)-2-(2-methoxyethoxy)acetamide]	–	–	−^$ (<=30%)	+^$ (>30%)	–	–	–	–	–	–	EC50 (U937 cells [1]; [11]): < 10 nM; IC50 (THP-1 cells; [12]): < 10 nM; IC50 (BEAS2B cells): < 5000 nM; IC50 (U937 cells [3]): < 5000 nM
COCC(=O)Nc1cc(Oc2ccc(NC(=O)Nc3cc(C(C)(C)C)nn3-c3ccc(C)cc3)c(C)c2)ccn1 [Example 24, N-(4-(4-(3-(3-tert-Butyl-1-p-tolyl-1H-pyrazol-5-yl)ureido)-3-methylphenoxy)pyridin-2-yl)-2-methoxyacetamide]	< 10	< 10	–	–	–	< 10	–	–	–	–	IC50 (p38 MAPK alpha (MAPK14); Table 2): < 5000 nM; DU937 (cell viability) MTT assay 4 h [2, 10]: − (<=30%); DU937 (cell viability) MTT assay 24 h [2, 10]: + (>30%)
[2H]c1c([2H])c(C([2H])([2H])[2H])c([2H])c([2H])c1-n1nc(C(C)(C)C)cc1NC(=O)Nc1ccc(Oc2ccnc(NC(=O)COC)c2)c2ccccc12 [Example 10, N-(4-(4-(3-(3-tert-butyl-1-(2,3,5,6-tetradeutero-4-(trideuteromethyl)phenyl)-1H-pyrazol-5-yl)ureido)naphthalen-1-yloxy)pyridin-2-yl)-2-methoxyacetamide]	< 10	< 10	–	–	< 10	< 10	–	–	–	–	DU937 (cell viability) MTT assay 4 h [2, 10]: − (<=30%); DU937 (cell viability) MTT assay 24 h [2, 10]: + (>30%)
Cc1ccc(-n2nc(C(C)(C)C)cc2NC(=O)Nc2ccc(Oc3ccnc(NC(=O)NC4CC4)n3)c3ccccc23)cc1 [Example 69, 1-Cyclopropyl-3-(4-(4-(3-(3-tert-butyl-1-p-tolyl-1H-pyrazol-5-yl)ureido)naphthalen-1-yloxy)pyrimidin-2-yl)urea]	< 10	–	–	–	–	–	–	–	–	–	IC50 (p38 MAPK alpha (MAPK14); Table 1): < 10 nM; IC50 (THP-1 cells; THP-1, Table 1, read-out: THP-1 (LPS) TNFα IC50): < 5000 nM; DU937 (cell viability) MTT assay 4 h ([2]; Table 1, MTT, loss of cell viability at 1 μg/ml): − (<=30%); DU937 (cell viability) MTT assay 4 h ([2]; Table 1, first MTT column, loss of cell viability at 1 μg/ml): − (<=30%); IC50 (U937 cells [3]; Table 1): < 10 nM
Cc1ccc(-n2nc(C(C)(C)C)cc2NC(=O)Nc2ccc(Oc3ccnc(NC(=O)NCC(=O)N4CCOCC4)c3)c3ccccc23)cc1 [Example 58, 2-(3-(4-(4-(3-(3-tert-Butyl-1-p-tolyl-1H-pyrazol-5-yl)ureido)naphthalen-1-yloxy)pyridin-2-yl)ureido)acetyl morpholine]	–	–	–	–	–	–	< 10	< 10	− (<=30%)	− (<=30%)	IC50 (BEAS2B cells; Table 3): < 10 nM; IC50 (U937 cells [3]; Table 3): < 10 nM
Cc1ccc(-n2nc(C(C)(C)C)cc2NC(=O)Nc2ccc(Oc3ccnc(NC(=O)C4CCOCC4)c3)c3ccccc23)cc1 [Example 2, N-(4-(4-(3-(3-tert-Butyl-1-p-tolyl-1H-pyrazol-5-yl)ureido)naphthalen-1-yloxy)pyridin-2-yl)tetrahydro-2H-pyran-4-carboxamide]	< 5000	< 10	−^$ (<=30%)	+^$ (>30%)	< 10	< 10	–	–	–	–	–
CSCC(=O)Nc1cc(Oc2ccc(NC(=O)Nc3cc(C(C)(C)C)nn3-c3ccc(C)cc3)c3ccccc23)ccn1 [Example 3, N-(4-(4-(3-(3-tert-Butyl-1-p-tolyl-1H-pyrazol-5-yl)ureido)naphthalen-1-yloxy)pyridin-2-yl)-2-(methylthio)acetamide]	< 5000	< 10	−^$ (<=30%)	+^$ (>30%)	< 5000	< 10	–	–	–	–	–
